Source: patent US20040072907A1, “Antipicornaviral compounds, compositions containing them, and methods for their use” (priority 1997, published 2004)
Read-outs that look alike come from different tables or passages of the source.

Experiments:
HI-HeLa cells = assay: Cytotoxicity in mock-infected HI-HeLa cells (XTT, antirhinoviral assay); assay type: cell-based
Description: (§1) In the Cell Protection Assay, the ability of compounds to protect cells against HRV infection was measured by the XTT dye reduction method. This method is described in Weislow, O. S., Kiser, R., Fine, D. L., Bader, J., Shoemaker, R. H., Boyd, M. R., J. Natl. Cancer Inst. 1989, 81, 577-586, the disclosure of which is incorporated herein by reference.
(§2) Infected or mock-infected cells were resuspended at 8×10^5 cells per mL and incubated with appropriate concentrations of compounds of formula I. Two days later, XTT/PMS was added to test plates, and the amount of formazan produced was quantified spectrophotometrically at 450/650 nm. […] The therapeutic index (TI) was calculated by dividing the CC50 by the EC50.
HRV stocks were propagated, and viral assays were performed in HI-HeLa cells (ATCC). Cells were grown in Minimal Essential Medium, available from Life Technologies, with 10% fetal bovine serum.

[1] = biological target: Recombinant Rhinovirus 3C protease serotype 16 (Human rhinovirus 16, UniProt Q82122); assay type: biochemical
Description: Stock solutions (50 mM, in DMSO) of various compounds were prepared; dilutions were in the same solvent. […] Assays contained 2% DMSO, 50 mM tris pH 7.6, 1 mM EDTA, a compound at the indicated concentrations, approximately 1 μM substrate, and 50-100 nM protease. […] The kobs/I values were obtained from reactions initiated by addition of enzyme rather than substrate. RVP activity is measured in the fluorescence resonance energy transfer assay. […] In the uncleavaed peptide, the EDANS fluorescence was quenched by the proximal DABCYL moiety. When the peptide was cleaved, the quenching was relieved, and activity was measured as an increase in fluorescence signal.
In the above table, all data are for RVP serotype-14 unless otherwise noted in parentheses. All strains of human rhinovirus (HRV) were purchased from American Type Culture Collection (ATCC) except for serotype 14, which was produced from the infectious cDNA clone constructed and supplied to Applicants by Dr. Robert Rueckert at the Institute for Molecular Virology, University of Wisconsin, Madison, Wis. The column designated INHIB represents the percent inhibition at 10 minute preincubation with 50 nM RVP prior to addition of substrate. The data in the column designated kobs/I was measured from progress curves enzyme start experiments.

[2] = biological target: T1, Recombinant Rhinovirus 3C protease serotype 2 (Human rhinovirus 2, UniProt P04936); assay type: biochemical
T1 construct: Recombinant Rhinovirus 3C proteases from serotypes 14, 16, and 2; made in house

[3] = biological target: T2, Recombinant Rhinovirus 3C protease serotype 14 (Human rhinovirus 14, UniProt P03303); assay: biochemical
T2 construct: Recombinant Rhinovirus 3C proteases from serotypes 14, 16, and 2; made in house

HRV serotype-14 = assay: Antirhinoviral HI-HeLa cell culture assay (XTT cell protection), HRV-14; assay type: cell-based, human rhinovirus; conditions: HRV serotype-14, HI-HeLa cells, m.o.i. 0.13, two days, XTT; read-out: EC50
Description: as §1, §2
(§3) All strains of human rhinovirus (HRV) for use in this assay were purchased from American Type Culture Collection (ATCC) except for HRV serotype-14, which was produced from the infectious cDNA clone constructed and supplied to Applicants by Dr. Robert Rueckert at the Institute for Molecular Virology, University of Wisconsin, Madison, Wis. HRV stocks were propagated, and viral assays were performed in HI-HeLa cells (ATCC). Cells were grown in Minimal Essential Medium, available from Life Technologies, with 10% fetal bovine serum.
(§4) The compounds were tested against control compounds WIN 51711, WIN 52084, and WIN 54954, all obtained from Sterling-Winthrop Pharmaceuticals, and control compound Pirodavir, obtained from Janssen Pharmaceuticals. Antiviral data obtained for the test compounds are shown in Table 2 where all data are for HRV serotype-14 unless otherwise noted in parentheses.

HRV serotype 89 = assay: Antirhinoviral HI-HeLa cell culture assay (XTT cell protection), HRV-89; assay type: cell-based, human rhinovirus; conditions: HRV serotype 89, HI-HeLa cells
Description: as §1, §2, §3, §4

HRV serotype 1A = assay: Antirhinoviral HI-HeLa cell culture assay (XTT cell protection), HRV-1A; assay type: cell-based, human rhinovirus; conditions: HI-HeLa cells
Description: as §1, §2, §3, §4

HRV serotype 10 = assay: Antirhinoviral HI-HeLa cell culture assay (XTT cell protection), HRV-10; assay type: cell-based, human rhinovirus; conditions: HRV serotype 10, HI-HeLa cells
Description: as §1, §2, §3, §4

HRV serotype 39 = assay: Antirhinoviral HI-HeLa cell culture assay (XTT cell protection), HRV-39; assay type: cell-based, human rhinovirus; conditions: HRV serotype 39, HI-HeLa cells
Description: as §1, §2, §3, §4

[4] = mock-infected HI-HeLa cells, line for HRV serotype-14, read-out: CC50
[5] = mock-infected HI-HeLa cells, line for HRV serotype 2, read-out: CC50
[6] = mock-infected HI-HeLa cells, line for HRV serotype 1A, read-out: CC50
[7] = mock-infected HI-HeLa cells, line for HRV serotype 10, read-out: CC50
[8] = mock-infected HI-HeLa cells, line for HRV serotype 16, read-out: CC50
[9] = mock-infected HI-HeLa cells, line for HRV serotype 39, read-out: CC50
[10] = RVP serotype-14, progress curves, enzyme start experiments
[11] = mock-infected HI-HeLa cells, line for HRV serotype 89, read-out: CC50

T2 sequence (P03303 1538-1719): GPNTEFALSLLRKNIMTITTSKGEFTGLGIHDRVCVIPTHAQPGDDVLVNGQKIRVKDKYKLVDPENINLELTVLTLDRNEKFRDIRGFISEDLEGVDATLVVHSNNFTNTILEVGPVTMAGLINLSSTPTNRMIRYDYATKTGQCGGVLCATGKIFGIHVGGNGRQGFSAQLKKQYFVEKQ
T1 sequence (P04936 1508-1690): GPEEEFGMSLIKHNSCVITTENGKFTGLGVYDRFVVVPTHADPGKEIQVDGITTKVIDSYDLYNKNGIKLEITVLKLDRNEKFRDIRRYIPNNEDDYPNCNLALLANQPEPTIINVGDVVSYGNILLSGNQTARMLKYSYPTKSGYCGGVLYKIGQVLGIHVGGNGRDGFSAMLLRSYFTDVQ
Sequence of Recombinant Rhinovirus 3C protease serotype 16 (Q82122 1511-1693): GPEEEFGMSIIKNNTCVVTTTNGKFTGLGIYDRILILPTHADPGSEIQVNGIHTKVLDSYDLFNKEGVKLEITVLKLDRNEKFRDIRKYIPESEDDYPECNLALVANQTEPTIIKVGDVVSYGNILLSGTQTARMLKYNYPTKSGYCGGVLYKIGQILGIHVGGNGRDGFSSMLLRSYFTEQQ

## CCOC(=O)/C=C/C(CCC(N)=O)NC(=O)C(CC(=O)C(CC(C)C)NC(=O)OCc1ccccc1)Cc1ccccc1 [Compound 1, Ethyl-3-(CBZ-L-LeuΨ[COCH2]-L-Phe-L-Gln)-E-Propenoate]
HI-HeLa cells; [4]
  CC50: > 320000 nM

## CCOC(=O)/C=C/[C@H](CCC(N)=O)NC(=O)[C@@H](CC(=O)[C@H](CC(C)C)NC(=O)SCC)Cc1ccccc1 [Compound 2, Ethyl-3-(EtSCO-L-LeuΨ[COCH2]-L-Phe-L-Gln)-E-Propenoate]
[1]
  kobs/I: 10,410 M^−1sec^−1
[2]
  kobs/I: 4,600 M^−1sec^−1
HI-HeLa cells; [5]
  CC50: > 320000 nM
[3]
  kobs/I: 47,000 M^−1sec^−1

## CCOC(=O)/C=C/[C@H](CCC(N)=O)NC(=O)[C@@H](CC(=O)[C@@H](NC(=O)SCC)C(C)C)Cc1ccccc1 [Compound 4, Ethyl-3-(EtSCO-L-ValΨ[COCH2]-L-Phe-L-Gln)-E-Propenoate]
[1]
  kobs/I: 34,600 M^−1sec^−1
[2]
  kobs/I: 17,800 M^−1sec^−1
HI-HeLa cells; [4]
  CC50: > 320000 nM
[3]
  kobs/I: 180,000 M^−1sec^−1

## CCOC(=O)/C=C/C(CCC(N)=O)NC(=O)C(CC(=O)C(NC(=O)SCc1ccccc1)C(C)C)Cc1ccccc1 [Compound 5, Ethyl-3-(BnSCO-L-ValΨ[COCH2]-L-Phe-L-Gln)-E-Propenoate]
[1]
  kobs/I: 89,700 M^−1sec^−1
[2]
  kobs/I: 26,900 M^−1sec^−1
[3]
  kobs/I: 500,000 M^−1sec^−1

## CCOC(=O)/C=C/C(CCC(N)=O)NC(=O)C(CC(=O)C(CC(C)C)NC(=O)SCc1ccccc1)Cc1ccccc1 [Compound 6, Ethyl-3-(BnSCO-L-LeuΨ[COCH2]-L-Phe-L-Gln)-E-Propenoate]
[1]
  kobs/I: 23,230 M^−1sec^−1
[2]
  kobs/I: 13,350 M^−1sec^−1
[3]
  kobs/I: 87,600 M^−1sec^−1

## CCOC(=O)/C=C/[C@H](CCC(N)=O)NC(=O)[C@@H](CC(=O)[C@H](CC(C)C)NC(=O)SC1CCCC1)Cc1ccccc1 [Compound 8, Ethyl-3-(CyPentylSCO-L-LeuΨ[COCH2]-L-Phe-L-Gln)-E-Propenoate]
[1]
  kobs/I: 14,200 M^−1sec^−1
[2]
  kobs/I: 7,000 M^−1sec^−1
[2]; RVP serotype 2, progress curves, enzyme start experiments
  kobs/I: 7,000 M^−1sec^−1
[3]
  kobs/I: 55,700 M^−1sec^−1

## CCOC(=O)/C=C/[C@H](CCC(N)=O)NC(=O)[C@@H](CC(=O)[C@@H](NC(=O)SCC)C(C)C)Cc1ccc(C)cc1 [Compound 10, Ethyl-3-(EtSCO-L-ValΨ[COCH2]-L-(p-CH3)Phe-L-Gln)-E-Propenoate]
HI-HeLa cells; [5]
  CC50: > 1000 nM
[3]
  kobs/I: 440,000 M^−1sec^−1

## CCOC(=O)/C=C/C(CCC(N)=O)NC(=O)C(CC(=O)C(NC(=O)SC1CCCC1)C(C)C)Cc1ccc(C)cc1 [Compound 11, Ethyl-3-(CyPentylSCO-L-ValΨ[COCH2]-L-(p-CH3)Phe-L-Gln)-E-Propenoate]
HI-HeLa cells; [6]
  CC50: > 3000 nM
HI-HeLa cells; [5]
  CC50: > 3000 nM
HI-HeLa cells; [7]
  CC50: > 3000 nM
HI-HeLa cells; [8]
  CC50: > 3000 nM
HI-HeLa cells; [9]
  CC50: > 3000 nM
[3]
  kobs/I: 850,000 M^−1sec^−1

## CCOC(=O)/C=C/C(CCC(N)=O)NC(=O)C(CC(=O)C(Cc1ccccc1)NC(=O)SC1CCCC1)Cc1ccc(C)cc1 [Compound 12, Ethyl-3-(CyPentylSCO-L-PheΨ[COCH2]-L-(p-CH3)Phe-L-Gln)-E-Propenoate]
HRV serotype-14
  EC50: 140 nM
HI-HeLa cells; [4]
  CC50: > 1000 nM
[3]; [10]
  kobs/I: 404,000 M^−1sec^−1

## CCOC(=O)/C=C/[C@H](CCC(N)=O)NC(=O)[C@@H](CC(=O)[C@@H](NC(=O)SCC)C(C)C)Cc1ccc(F)cc1 [Compound 13, Ethyl-3-(EtSCO-L-ValΨ[COCH2]-L-(p-F)Phe-L-Gln)-E-Propenoate]
HI-HeLa cells; [4]
  CC50: > 3000 nM

## CCOC(=O)/C=C/C(CCC(N)=O)NC(=O)C(CC(=O)C(NC(=O)SC1CCCC1)C(C)C)Cc1ccc(F)cc1 (centres unmarked) [Compound 14]
HRV serotype-14
  EC50: 20 nM
HRV serotype 89
  EC50: 80 nM
HRV serotype 1A
  EC50: 170 nM
HI-HeLa cells; [6]
  CC50: > 10000 nM
HI-HeLa cells; [5]
  CC50: > 10000 nM
HI-HeLa cells; [7]
  CC50: > 10000 nM
HI-HeLa cells; [8]
  CC50: > 10000 nM
HI-HeLa cells; [9]
  CC50: > 10000 nM
HI-HeLa cells; [11]
  CC50: > 10000 nM
HI-HeLa cells; [4]
  CC50: > 10000 nM

## CCOC(=O)/C=C/[C@H](CCC(N)=O)NC(=O)[C@@H](CC(=O)[C@@H](NC(=O)SCC)C(C)C)Cc1ccc(C(F)(F)F)cc1 [Compound 15, Ethyl-3-(EtSCO-L-ValΨ[COCH2]-L-(p-CF3)Phe-L-Gln)-E-Propenoate]
HRV serotype-14
  EC50: 63 nM
HI-HeLa cells; [4]
  CC50: > 1000 nM
[3]; [10]
  kobs/I: 127,000 M^−1sec^−1

## CCOC(=O)/C=C/C(CCC(N)=O)NC(=O)C(CC(=O)C(NC(=O)SC1CCCC1)C(C)C)Cc1ccc(C(F)(F)F)cc1 [Compound 16, Ethyl-3-(CyPentylSCO-L-ValΨ[COCH2]-L-(p-CF3)Phe-L-Gln)-E-Propenoate]
HRV serotype 10
  EC50: 150 nM
HRV serotype-14
  EC50: 50 nM
HRV serotype 89
  EC50: 80 nM
HRV serotype 39
  EC50: 200 nM
HI-HeLa cells; [6]
  CC50: > 3000 nM
HI-HeLa cells; [5]
  CC50: > 3000 nM
HI-HeLa cells; [7]
  CC50: > 3000 nM
HI-HeLa cells; [8]
  CC50: > 3000 nM
HI-HeLa cells; [9]
  CC50: > 3000 nM
HI-HeLa cells; [11]
  CC50: > 3000 nM
HI-HeLa cells; [4]
  CC50: > 3000 nM

## CC(=O)N1CC/C(=C\C(CCC(N)=O)NC(=O)C(CC(=O)C(NC(=O)SC2CCCC2)C(C)C)Cc2ccc(C)cc2)C1=O [Compound 17, [CyPentylSCO-L-ValΨ[COCH2]-L-(p-CH3)Phe-L-Gln]-E-1-Acetyl-3-methylene-pyrrolidin-2-one]
HRV serotype-14
  EC50: 27 nM
HRV serotype 39
  EC50: 480 nM
HI-HeLa cells; [5]
  CC50: > 10000 nM
HI-HeLa cells; [9]
  CC50: > 10000 nM
HI-HeLa cells; [4]
  CC50: > 10000 nM

## CCOC(=O)/C=C/C(CCC(N)=O)NC(=O)C(CC(=O)C(Cc1ccccc1)NC(=O)SC1CCCC1)Cc1ccc(F)cc1 [Compound 18, Ethyl-3-(CyPentylSCO-L-PheΨ[COCH2]-L-(p-F)Phe-L-Gln)-E-Propenoate]
HRV serotype-14
  EC50: 480 nM
HI-HeLa cells; [4]
  CC50: > 3000 nM
[3]; [10]
  kobs/I: 127,400 M^−1sec^−1

## CCOC(=O)/C=C/C(CCC(N)=O)NC(=O)C(CC(=O)C(NC(=O)CC1CCCC1)C(C)C)Cc1ccc(C)cc1 (centres unmarked) [Compound 23]
HRV serotype-14
  EC50: 20900 nM
HI-HeLa cells
  CC50: > 10000 nM
[3]; [10]
  kobs/I: 36,500 M^−1sec^−1

## Cc1cc(CCCCCCCOc2ccc(C3=NCCO3)cc2)on1 [WIN 51711, reference compound]
HRV serotype-14
  EC50: 780 nM
HI-HeLa cells; [4]
  CC50: > 60000 nM

## Cc1cc(CCCCCCCOc2ccc(C3=N[C@@H](C)CO3)cc2)on1 [WIN 52084, reference compound]
HRV serotype-14
  EC50: 70 nM
HI-HeLa cells; [4]
  CC50: > 10000 nM

## Ethyl-3-(CyPentylSCO-L-CyhexΨ[COCH2]-L-(p-F)Phe-L-Gln)-E-Propenoate [Compound 24]
HI-HeLa cells; [4]
  CC50: > 3000 nM
